Measured values from patent US20240108612A1, “PHARMACEUTICAL COMPOSITION FOR ENHANCING ANTICANCER EFFECT OF PROTAC, INCLUDING IU1-SERIES UBIQUITIN-SPECIFIC PROTEASE 14 INHIBITOR AS ACTIVE INGREDIENT” (DAEGU GYEONGBUK INSTITUTE OF SCIENCE AND TECHNOLOGY, priority 2021, published 2024).
Peptide text beside a SMILES is read from it. * marks the point of attachment. Cbz = O=C(OCc1ccccc1)*

What was measured:
CDK9 protein [1] = biological target: T1, CDK9 protein (Homo sapiens, UniProt P50750); assay: CDK9 protein degradation by Western blotting in HeLa cells; type: cell-based; set-up: endogenous in cells; host or cells: HeLa (ATCC); conditions: for CDK9 protein level when inhibitor is treated together with PROTAC and IU1: proteasome or autophagy inhibitor added to CDK9 PROTAC and IU1, FIG. 4C; for Enhancement of degradation effect of CDK9 PROTAC, comparison with PR-619: PR-619 at different concentrations, FIG. 16
T1 sequence (P50750 whole entry): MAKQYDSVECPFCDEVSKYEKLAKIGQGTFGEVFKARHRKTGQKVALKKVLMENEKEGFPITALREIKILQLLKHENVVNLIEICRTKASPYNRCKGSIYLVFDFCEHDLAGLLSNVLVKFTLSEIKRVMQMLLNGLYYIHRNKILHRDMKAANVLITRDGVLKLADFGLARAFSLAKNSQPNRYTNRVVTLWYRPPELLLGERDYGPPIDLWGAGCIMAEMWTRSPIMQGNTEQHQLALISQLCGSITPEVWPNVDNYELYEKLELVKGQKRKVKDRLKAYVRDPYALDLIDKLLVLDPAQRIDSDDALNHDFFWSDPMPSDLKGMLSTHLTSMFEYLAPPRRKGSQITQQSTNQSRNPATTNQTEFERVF
T1 sequence (O60563 whole entry partner): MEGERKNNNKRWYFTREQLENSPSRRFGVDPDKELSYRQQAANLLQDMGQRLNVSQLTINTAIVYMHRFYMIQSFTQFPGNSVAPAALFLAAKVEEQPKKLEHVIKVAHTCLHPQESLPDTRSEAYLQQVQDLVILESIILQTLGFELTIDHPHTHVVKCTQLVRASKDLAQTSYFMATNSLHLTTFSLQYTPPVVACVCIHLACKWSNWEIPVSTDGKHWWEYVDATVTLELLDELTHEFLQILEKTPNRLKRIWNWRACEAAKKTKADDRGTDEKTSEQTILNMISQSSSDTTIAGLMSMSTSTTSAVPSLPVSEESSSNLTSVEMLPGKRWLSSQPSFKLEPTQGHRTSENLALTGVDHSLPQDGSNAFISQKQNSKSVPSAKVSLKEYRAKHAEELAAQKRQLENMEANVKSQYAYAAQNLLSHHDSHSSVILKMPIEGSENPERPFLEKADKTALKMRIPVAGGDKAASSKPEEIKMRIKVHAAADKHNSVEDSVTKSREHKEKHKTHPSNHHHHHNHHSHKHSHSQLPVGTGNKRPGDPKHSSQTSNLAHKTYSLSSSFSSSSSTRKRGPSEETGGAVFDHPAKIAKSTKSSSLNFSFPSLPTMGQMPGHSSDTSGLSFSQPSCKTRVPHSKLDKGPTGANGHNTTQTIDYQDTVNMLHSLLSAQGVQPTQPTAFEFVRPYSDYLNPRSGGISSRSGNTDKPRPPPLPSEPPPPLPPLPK
Protocol: (§1) HeLa cells (cervical cancer cells) and LNCaP cells (prostate cancer cells) that were used for the experiments of the present disclosure were obtained from the American Type Culture Collection (ATCC), and were cultured in Dulbecco's Modified Eagle's Medium (DMEM, 1×) or RPMI-1640 (1×) medium, each containing 10% FBS, 1% penicillin/streptomycin and 1% L-glutamine, in a 37° C., 5% CO2 cell incubator. For experiments with PROTAC and deubiquitinase (DUB) inhibitors such as IU1 and IU1-47, 5×10^5 (HeLa) or 1×10^6 (LNCaP) cells were seeded into each well of a 12-well plate (Corning, #3513) one day before inhibitor treatment and then cultured in an incubator. Twenty-four hours after incubation, each well was replaced with medium containing serial dilutions of the compound and incubated under the same conditions for no more than 24 hours. As for all controls, the same amount of DMSO, which is a vehicle, was used for that of the compound treated with the experimental groups.
(§2) To prepare samples for Western blotting, HeLa and LNCaP cells were washed once with ice-cold PBS (1×) and lysed using RIPA buffer (ROCKLAND, MB-030-050) supplemented with protease inhibitor cocktail (Roche), 1 mM PMSF, and 1 mM DTT, or 1% SDS lysis buffer [1% (w/v) SDS, 10 mM Tris-HCl, 1 mM EDTA, pH 8.0]. All lysates were quantified by BCA protein assay (Thermo Fisher Scientific), and then 15 to 30 μg of each lysate was run by SDS-PAGE. Afterwards, the experiment was performed in the following order: transfer to PVDF membrane, treatment with a blocking solution (5% BSA or 5% non-fat dry milk in 1× TBST), treatment with designated primary antibody, and treatment with HRP-linked secondary antibody. Between treatments, washing was performed several times with excess 1× TBST. Each membrane was image-analyzed and quantified for protein signals using ChemiDoc (iBright750, Invitrogen).
Data obtained through Western blotting were quantified using iBright analysis software, and the levels of all target proteins were normalized with GAPDH. After quantification and normalization, DC50 values of the compounds used in the experiments of the present disclosure were derived through nonlinear regression using Graph Pad Prism software.

HeLa cells [2] = assay: Cancer cell migration assay in HeLa cells; type: cell-based; conditions: CDK9 PROTAC 40 nM and IU1-47 20 μM in combination; every 12 hours; FIG. 18
Protocol: Microscopic images were taken using an inverted fluorescence microscope (Olympus) through a 10× magnification lens every 12 hours, and the width of the intercellular region was measured using ImageJ software.
To this end, HeLa cells were treated with CDK9 PROTAC (40 nM) and IU1-47 (20 μM) compounds separately or in combination, and the migration of HeLa cells was confirmed every 12 hours.

HeLa cells [3] = assay: Cancer cell colony formation assay in HeLa cells; type: cell-based; conditions: CDK9 PROTAC 10-100 nM and IU1-47 20 μM in combination; one week; FIG. 19
Protocol: Afterwards, the medium was replaced with a compound-containing medium, and then the cells were further cultured in the incubator under the same conditions for one week. The cultured cancer cells at the end were stained with 0.25% crystal violet staining solution containing 20% methanol for 1 hour, and then washed with ultrapure distilled water and dried at room temperature for one day. Cell images were captured using a camera or iBright CL750 (Thermo Fisher), the number of colonies was analyzed using iBright analysis software, and the size of colonies was analyzed using ImageJ software.
As another example to confirm the anticancer effect by the degradation of CDK9 protein enhanced by the combined treatment of the IU1-series compound and CDK9 PROTAC, which was confirmed in Examples as described above, different concentrations of CDK9 PROTAC (10, 25 , 50, 75, 100 nM) and IU1-47 (20 μM) compounds were used separately or in combination for treatment, and one week later, the degree of colony formation of HeLa cancer cells by the effect of enhancing CDK9 PROTAC protein degradation capability by IU1-series compound, was confirmed.

BRD4 protein = biological target: T2, BRD4 protein (Homo sapiens, UniProt O60885); assay: BRD4 protein degradation by Western blotting; type: cell-based; conditions: 50 μM IU1 with BRD4 PROTAC; 1% SDS lysis buffer or RIPA buffer; FIG. 11
T2 construct: endogenous in cells
Protocol: as §2
In order to determine whether the USP14 inhibitor of the present disclosure can enhance protein degradation capability for PROTACs other than CDK9 PROTACs, which were confirmed through experiments in Examples 2 and 4, it was confirmed whether the effect of degradation of BRD4 protein by BRD4 PROTAC was enhanced by IU1 treatment. […]

SHP-2 protein = biological target: T3, SHP-2 protein (Homo sapiens, UniProt Q06124); assay: SHP-2 protein degradation by Western blotting in HeLa cells; type: cell-based; conditions: IU1 in combination with SHP-2 PROTAC, FIGS. 12A, 12B
T3 construct: endogenous in cells; host or cells: HeLa (ATCC)
T3 sequence (Q06124 1-593): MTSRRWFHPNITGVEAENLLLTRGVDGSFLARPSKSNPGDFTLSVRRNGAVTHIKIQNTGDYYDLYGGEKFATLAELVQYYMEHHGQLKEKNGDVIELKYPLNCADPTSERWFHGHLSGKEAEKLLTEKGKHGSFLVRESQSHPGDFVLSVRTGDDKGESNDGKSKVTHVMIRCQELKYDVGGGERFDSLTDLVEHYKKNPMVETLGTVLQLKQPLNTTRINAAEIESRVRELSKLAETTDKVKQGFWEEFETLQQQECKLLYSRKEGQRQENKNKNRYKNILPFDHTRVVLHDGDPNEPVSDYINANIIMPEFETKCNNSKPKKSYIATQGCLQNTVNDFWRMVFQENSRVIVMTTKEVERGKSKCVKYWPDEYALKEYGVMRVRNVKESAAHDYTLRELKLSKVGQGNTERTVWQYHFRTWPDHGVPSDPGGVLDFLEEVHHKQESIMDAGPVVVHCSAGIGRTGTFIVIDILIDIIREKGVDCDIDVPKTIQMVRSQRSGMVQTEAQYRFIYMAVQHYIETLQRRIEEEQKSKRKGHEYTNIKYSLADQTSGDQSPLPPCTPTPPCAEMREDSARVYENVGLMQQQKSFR
Protocol: as §2
In addition, for SHP-2 PROTAC, which is another VHL-based PROTAC other than BRD4 PROTAC, it was confirmed whether the degradation effect for SHP-2 protein was enhanced under experimental conditions similar to those in the experiment in FIG. 7.

HeLa cells [4] = conditions: FIG. 8
Protocol: To measure cell viability by treatment with the compound of the present disclosure, HeLa and LNCaP cells were seeded in a 96-well plate (SPL, #33396) at 500 cells/well (HeLa) or 3000 cells/well (LNCaP). The cells were seeded and cultured in an incubator at 37° C. and 5% CO2. Twenty four hours later, the medium was replaced with compound-containing medium and incubated under the same conditions in an incubator for 48 hours. Afterwards, cell viability was measured through luminescence analysis in an Envision microplate reader (Perkin Elmer) using the ATP-lite 1 step assay kit (Perkin Elmer).
The results measured in the experiments to confirm cell viability were initially processed using Excel, and then the IC50 values were derived through nonlinear regression analysis using Prism software.

CDK9 protein [5] = biological target: T1, CDK9 protein; assay: CDK9 protein degradation by Western blotting in LNCaP cells; type: cell-based; set-up: endogenous in cells
Protocol: as §1, with “Twenty-four hours after incubation, each well was replaced with medium containing serial dilutions of the compound and incubated under the same conditions for no more than 24 hours. As for all controls, the same amount of DMSO, which is a vehicle, was used for that of the compound treated with the experimental groups.” left out
To prepare samples for Western blotting, HeLa and LNCaP cells were washed once with ice-cold PBS (1×) and lysed using RIPA buffer (ROCKLAND, MB-030-050) supplemented with protease inhibitor cocktail (Roche), 1 mM PMSF, and 1 mM DTT, or 1% SDS lysis buffer [1% (w/v) SDS, 10 mM Tris-HCl, 1 mM EDTA, pH 8.0]. All lysates were quantified by BCA protein assay (Thermo Fisher Scientific), and then 15 to 30 μg of each lysate was run by SDS-PAGE. […] Each membrane was image-analyzed and quantified for protein signals using ChemiDoc (iBright750, Invitrogen).
Data obtained through Western blotting were quantified using iBright analysis software, and the levels of all target proteins were normalized with GAPDH. […]

CS(=O)(=O)c1ccc(NC(=O)c2cc(C#N)c(Sc3c(Cl)cncc3Cl)s2)cc1 [P50429, reference compound]
Enhancement of degradation effect of CDK9 PROTAC (CDK9 protein [1]; HeLa, P50429 1 μM and 10 μM with CDK9 PROTAC, FIG. 17): did not enhance the degradation effect of PROTAC

CC(C)C[C@@H](C=O)NC(=O)[C@H](CC(C)C)NC(=O)[C@H](CC(C)C)NC(=O)OCc1ccccc1 [MG132, reference compound] (Cbz-Leu-Leu-Leu-aldehyde)
CDK9 protein level when inhibitor is treated together with PROTAC and IU1 (CDK9 protein [1]): the level of CDK9 protein was recovered similar to the control group

N#CSc1cc(SC#N)c(N)nc1N [PR-619, reference compound]
Enhancement of degradation effect of CDK9 PROTAC, comparison with PR-619 (CDK9 protein [1]; HeLa): did not show the effect of enhancing the protein degradation of PROTAC at all treatment concentrations

Cc1cc(C(=O)CN2CCCCC2)c(C)n1-c1ccc(Cl)cc1 [IU1-47, 1-[1-(4-chlorophenyl)-2,5-dimethyl-1H-pyrrol-3-yl]-2-(1-piperidinyl)ethanone]
Migration or wound healing effect of HeLa cells, combination versus either alone (HeLa cells [2]): significantly inhibited
Colony formation of HeLa cancer cells, combination versus either alone (HeLa cells [3]): significantly inhibited
Enhancement of protein degradation of PROTAC from DC50 values, versus CDK9 PROTAC alone (CDK9 protein [1]; HeLa, 20 μM IU1-47 in combination with CDK9 PROTAC, FIG. 13C): about 6 times
Enhancement of degradation of PROTAC, CDK9 PROTAC concentration fixed (CDK9 protein [1]; HeLa, CDK9 PROTAC 5, 10, 20 nM, varying IU1-47, FIG. 14): significantly enhanced the degradation of PROTAC in a concentration-dependent manner
CDK9 degradation on treatment with IU1-47 alone (CDK9 protein [1]; HeLa, FIG. 14): did not result in any degradation of CDK9
Enhancement of protein degradation capability of CDK9 PROTAC versus vehicle (CDK9 protein [1]; HeLa, IU1-47 10 μM, 20 µM, 30 μM, CDK9 PROTAC 0.1-250 nM, FIGS. 13A, 13B): significantly enhanced at all concentrations of IU1-47
Enhancement of degradation effect of CDK9 PROTAC, comparison with P50429 (CDK9 protein [1]; HeLa, IU1-47 20 μM, FIG. 17): significantly enhanced the degradation effect of PROTAC
Enhancement of degradation effect of CDK9 PROTAC, comparison with PR-619 (CDK9 protein [1]; HeLa): significantly enhanced the degradation effect of PROTAC
Targeted protein degradation capability of PROTAC, IU1-47 compared with IU1 (CDK9 protein [1]; in combination with PROTAC, see Example 6): more increased compared to when IU1 was treated in combination with PROTAC

Cc1cc(C(=O)CN2CCCC2)c(C)n1-c1ccc(F)cc1 [IU1, 1-[1-(4-fluorophenyl)-2,5-dimethylpyrrol-3-yl]-2-pyrrolidin-1-ylethanone]
Enhancement of BRD4 protein degradation effect of BRD4 PROTAC (BRD4 protein): concentration-dependent enhancement of the BRD4 protein degradation effect
Enhancement of SHP-2 protein degradation by SHP-2 PROTAC (SHP-2 protein): SHP-2 PROTAC concentration-dependent enhancement of SHP-2 protein degradation
Anticancer effect of CDK9 PROTAC (IC50, cell growth inhibition) with IU1 in combination (HeLa cells [4]): significantly increased
Enhancement of CDK9 degradation effect by CDK9 PROTAC, IU1 concentration fixed (CDK9 protein [5]; IU1 10, 25, 75, 100 μM (all concentrations), CDK9 PROTAC 1-50 nM, FIGS. 10A, 10B): enhanced the CDK9 degradation effect by CDK9 PROTAC in a PROTAC concentration-dependent manner
Degradation effect for CDK9 protein, combination versus CDK9 PROTAC alone (CDK9 protein [5]; IU1 and CDK9 PROTAC in combination, FIG. 9): significantly increased
Enhancement of protein degradation capability of CDK9 PROTAC through the DC50 value, versus vehicle control (CDK9 protein [1]; HeLa, 75 μM of IU1 in combination): about 5 times
Time-dependent effect on degradation effect of CDK9 PROTAC (CDK9 protein [1]; HeLa, CDK9 PROTAC 100 nM, IU1 50 μM, 0, 1, 3, 6, 12, 24 h, FIG. 15): accelerated the degradation effect of PROTAC
Enhancement of CDK9 protein degradation capability by CDK9 PROTAC versus vehicle control (CDK9 protein [1]; HeLa, CDK9 PROTAC 0.1-250 nM, especially high concentration of IU1, FIGS. 7A, 7B): highly enhanced the CDK9 protein degradation capability
Enhancement of protein degradation effect, CDK9 PROTAC concentration fixed (CDK9 protein [1]; HeLa, CDK9 PROTAC 5, 10, 20, 25 nM, IU1 10-100 μM, FIGS. 6A, 6B): the protein degradation effect was enhanced in an IU1 concentration-dependent manner at all concentrations
CDK9 protein degradation effect of CDK9 PROTAC on combined treatment (CDK9 protein [1]; HeLa, IU1 50 μM with CDK9 PROTAC 1, 10, 25, 50, 100 nM, FIG. 4A): substantially increased
Enhancement of CDK9 degradation effect by CDK9 PROTAC, IU1 concentration fixed (CDK9 protein [1]; HeLa, IU1 10, 25, 75, 100 μM, CDK9 PROTAC 1-100 nM, FIGS. 5A, 5B): enhanced the CDK9 degradation effect by CDK9 PROTAC in a PROTAC concentration-dependent manner at all concentrations except for the IU1 concentration at 10 μM
CDK9 protein degradation on treatment with IU1 alone (CDK9 protein [1]; HeLa, maximum IU1 treatment concentration 50 μM, FIG. 4B): degradation of CDK9 protein did not occur

CO/C1=C\C(C)=C\[C@@H](C)[C@@H](O)[C@@H](C)C/C(C)=C/C=C/[C@H](OC)[C@@H]([C@@H](C)[C@@H](O)[C@H](C)[C@@]2(O)C[C@@H](O)[C@H](C)[C@@H](C(C)C)O2)OC1=O [bafilomycin A1, reference compound]
CDK9 protein level when inhibitor is treated together with PROTAC and IU1 (CDK9 protein [1]): the degradation of CDK9 protein by the treatment with PROTAC and IU1 was still observed
